Laboratory results: the supplement of paper PMC10307832

What was measured:
Assay in all cases: relative viability (nuclei count vs DMSO), 5 days (fraction); higher = more cells survive
201T = tested on: 201T
Summary of the method: (§1)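 Relative viability divides the nuclei count in treated wells by that in vehicle wells. Lung cancer cell lines were seeded in 1536-well plates, dosed by pin tool the next day, and fixed and stained after 5 days in one step with final 0.05% Triton X-100, 1% formaldehyde and 1 ug/ml Hoechst. Dosing was a single drug or a fixed anchor-drug dose plus five library-drug doses (not always all listed) in √10 steps, and values are medians of duplicate plates imaged at 4×.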

A-427 = tested on: A-427
Summary of the method: as §1

BEN = tested on: BEN
Summary of the method: as §1

COR-L 105 = tested on: COR-L 105
Summary of the method: as §1

COR-L23 = tested on: COR-L23
Summary of the method: as §1

EKVX = tested on: EKVX
Summary of the method: as §1

HARA = tested on: HARA
Summary of the method: as §1

HCC-15 = tested on: HCC-15
Summary of the method: as §1

HCC-44 = tested on: HCC-44
Summary of the method: as §1

HCC-827 = tested on: HCC-827
Summary of the method: as §1

LK-2 = tested on: LK-2
Summary of the method: as §1

NCI-H1437 = tested on: NCI-H1437
Summary of the method: as §1

NCI-H1666 = tested on: NCI-H1666
Summary of the method: as §1

NCI-H1792 = tested on: NCI-H1792
Summary of the method: as §1

NCI-H1975 = tested on: NCI-H1975
Summary of the method: as §1

NCI-H23 = tested on: NCI-H23
Summary of the method: as §1

NCI-H358 = tested on: NCI-H358
Summary of the method: as §1

NCI-H441 = tested on: NCI-H441
Summary of the method: as §1

NCI-H596 = tested on: NCI-H596
Summary of the method: as §1

NCI-H650 = tested on: NCI-H650
Summary of the method: as §1

NCI-H838 = tested on: NCI-H838
Summary of the method: as §1

SK-MES-1 = tested on: SK-MES-1
Summary of the method: as §1

NC(=O)Nc1cc(-c2cccc(F)c2)sc1C(=O)N[C@H]1CCCNC1 [AZD7762] + C[C@]1(O)C[C@@H](c2nc(-c3ccc4ccc(-c5ccccc5)nc4c3)c3c(N)nccn32)C1 [Linsitinib] (partner 1 µM)
relative viability (201T; first compound 0.01 µM): 1.04 | relative viability (201T; first compound 0.03162 µM): 1.06 | relative viability (201T; first compound 0.1 µM): 1.1 | relative viability (201T; first compound 0.3162 µM): 1.09 | relative viability (201T; first compound 1 µM): 0.969 | relative viability (A-427; first compound 0.01 µM): 1.13 | relative viability (A-427; first compound 0.03162 µM): 1.18 | relative viability (A-427; first compound 0.1 µM): 1.22 | relative viability (A-427; first compound 0.3162 µM): 1.13 | relative viability (A-427; first compound 1 µM): 0.976 | relative viability (BEN; first compound 0.01 µM): 1.04 | relative viability (BEN; first compound 0.03162 µM): 0.892 | relative viability (BEN; first compound 0.1 µM): 0.797 | relative viability (BEN; first compound 0.3162 µM): 0.829 | relative viability (BEN; first compound 1 µM): 0.643 | relative viability (COR-L 105; first compound 0.01 µM): 0.855 | relative viability (COR-L 105; first compound 0.03162 µM): 0.921 | relative viability (COR-L 105; first compound 0.1 µM): 0.748 | relative viability (COR-L 105; first compound 0.3162 µM): 0.662 | relative viability (COR-L 105; first compound 1 µM): 0.393 | relative viability (COR-L23; first compound 0.01 µM): 1.11 | relative viability (COR-L23; first compound 0.03162 µM): 0.916 | relative viability (COR-L23; first compound 0.1 µM): 0.98 | relative viability (COR-L23; first compound 0.3162 µM): 0.799 | relative viability (COR-L23; first compound 1 µM): 0.18 | relative viability (EKVX; first compound 0.01 µM): 0.972 | relative viability (EKVX; first compound 0.03162 µM): 0.971 | relative viability (EKVX; first compound 0.1 µM): 0.844 | relative viability (EKVX; first compound 0.3162 µM): 0.873 | relative viability (EKVX; first compound 1 µM): 0.507 | relative viability (HARA; first compound 0.01 µM): 0.961 | relative viability (HARA; first compound 0.03162 µM): 0.934 | relative viability (HARA; first compound 0.1 µM): 0.847 | relative viability (HARA; first compound 0.3162 µM): 0.854 | relative viability (HARA; first compound 1 µM): 0.617 | relative viability (HCC-15; first compound 0.01 µM): 0.886 | relative viability (HCC-15; first compound 0.03162 µM): 0.918 | relative viability (HCC-15; first compound 0.1 µM): 0.915 | relative viability (HCC-15; first compound 0.3162 µM): 0.93 | relative viability (HCC-15; first compound 1 µM): 0.985 | relative viability (HCC-44; first compound 0.01 µM): 0.739 | relative viability (HCC-44; first compound 0.03162 µM): 0.679 | relative viability (HCC-44; first compound 0.1 µM): 0.724 | relative viability (HCC-44; first compound 0.3162 µM): 0.647 | relative viability (HCC-44; first compound 1 µM): 0.861 | relative viability (HCC-827; first compound 0.01 µM): 1.06 | relative viability (HCC-827; first compound 0.03162 µM): 0.994 | relative viability (HCC-827; first compound 0.1 µM): 0.922 | relative viability (HCC-827; first compound 0.3162 µM): 0.961 | relative viability (HCC-827; first compound 1 µM): 0.863 | relative viability (LK-2; first compound 0.01 µM): 0.691 | relative viability (LK-2; first compound 0.03162 µM): 0.597 | relative viability (LK-2; first compound 0.1 µM): 0.618 | relative viability (LK-2; first compound 0.3162 µM): 0.645 | relative viability (LK-2; first compound 1 µM): 0.308 | relative viability (NCI-H1437; first compound 0.01 µM): 1.06 | relative viability (NCI-H1437; first compound 0.03162 µM): 0.991 | relative viability (NCI-H1437; first compound 0.1 µM): 0.982 | relative viability (NCI-H1437; first compound 0.3162 µM): 1.04 | relative viability (NCI-H1437; first compound 1 µM): 0.86 | relative viability (NCI-H1666; first compound 0.01 µM): 0.845 | relative viability (NCI-H1666; first compound 0.03162 µM): 1.02 | relative viability (NCI-H1666; first compound 0.1 µM): 1.05 | relative viability (NCI-H1666; first compound 0.3162 µM): 0.868 | relative viability (NCI-H1666; first compound 1 µM): 0.565 | relative viability (NCI-H1792; first compound 0.01 µM): 0.604 | relative viability (NCI-H1792; first compound 0.03162 µM): 0.588 | relative viability (NCI-H1792; first compound 0.1 µM): 0.624 | relative viability (NCI-H1792; first compound 0.3162 µM): 0.599 | relative viability (NCI-H1792; first compound 1 µM): 0.707 | relative viability (NCI-H1975; first compound 0.01 µM): 1.07 | relative viability (NCI-H1975; first compound 0.03162 µM): 0.888 | relative viability (NCI-H1975; first compound 0.1 µM): 0.881 | relative viability (NCI-H1975; first compound 0.3162 µM): 0.681 | relative viability (NCI-H1975; first compound 1 µM): 0.482 | relative viability (NCI-H23; first compound 0.01 µM): 0.659 | relative viability (NCI-H23; first compound 0.03162 µM): 0.631 | relative viability (NCI-H23; first compound 0.1 µM): 0.517 | relative viability (NCI-H23; first compound 0.3162 µM): 0.517 | relative viability (NCI-H23; first compound 1 µM): 0.252 | relative viability (NCI-H358; first compound 0.01 µM): 0.695 | relative viability (NCI-H358; first compound 0.03162 µM): 0.745 | relative viability (NCI-H358; first compound 0.1 µM): 0.711 | relative viability (NCI-H358; first compound 0.3162 µM): 0.617 | relative viability (NCI-H358; first compound 1 µM): 0.42 | relative viability (NCI-H441; first compound 0.01 µM): 0.656 | relative viability (NCI-H441; first compound 0.03162 µM): 0.744 | relative viability (NCI-H441; first compound 0.1 µM): 0.657 | relative viability (NCI-H441; first compound 0.3162 µM): 0.823 | relative viability (NCI-H441; first compound 1 µM): 0.67 | relative viability (NCI-H596; first compound 0.01 µM): 1.04 | relative viability (NCI-H596; first compound 0.03162 µM): 1.04 | relative viability (NCI-H596; first compound 0.1 µM): 1.03 | relative viability (NCI-H596; first compound 0.3162 µM): 1.1 | relative viability (NCI-H596; first compound 1 µM): 0.923 | relative viability (NCI-H650; first compound 0.01 µM): 1.01 | relative viability (NCI-H650; first compound 0.03162 µM): 0.984 | relative viability (NCI-H650; first compound 0.1 µM): 0.842 | relative viability (NCI-H650; first compound 0.3162 µM): 0.843 | relative viability (NCI-H650; first compound 1 µM): 0.811 | relative viability (NCI-H838; first compound 0.01 µM): 0.982 | relative viability (NCI-H838; first compound 0.03162 µM): 1.01 | relative viability (NCI-H838; first compound 0.1 µM): 0.942 | relative viability (NCI-H838; first compound 0.3162 µM): 0.978 | relative viability (NCI-H838; first compound 1 µM): 0.627 | relative viability (SK-MES-1; first compound 0.01 µM): 1.06 | relative viability (SK-MES-1; first compound 0.03162 µM): 1.12 | relative viability (SK-MES-1; first compound 0.1 µM): 1.11 | relative viability (SK-MES-1; first compound 0.3162 µM): 1.04 | relative viability (SK-MES-1; first compound 1 µM): 0.414
